Source: paper PMC10046961, “High-Throughput Screening Assay for Detecting Drug-Induced Changes in Synchronized Neuronal Oscillations and Potential Seizure Risk Based on Ca^2+ Fluorescence Measurements in Human Induced Pluripotent Stem Cell (hiPSC)-Derived Neuronal 2D and 3D Cultures” (Cells, 2023)
Where two headings read alike, the source gives them in different places. Marks after values point to notes of the source that are not given here.

How the values were obtained:
[1] = test system: hiPSC-derived neurons co-cultured with human primary astrocytes in 3D; test: Ca2+ transient oscillation assay (FDSS), 3D spheroids; format: cell-based; settings: 60 min
In short: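 Fura-2 fluorescence was read twice for 20 min each: a baseline 10 min after 0.04% DMSO, and again 60 min after compound addition at nominal final concentration. The 3D co-cultures (1:1 hiPSC neurons from a donor and human astrocytes, 8000 each) matured 5 weeks in BrainPhys medium after a 1-week differentiation.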

[2] = ref PharmaPendium, cited from earlier work
[3] = test system: hiPSC-derived neurons co-cultured with human primary astrocytes in 2D; test: Ca2+ transient oscillation assay (FDSS), 2D co-culture; format: cell-based; settings: for activation at 11.11 µM / activation at 33.33 µM / activation at 100 µM / activation at 300 µM: Homo sapiens, 1 h, 60 min
In short: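 Cultures were 10,000 CW50065 hiPSC excitatory neurons plus 2500 primary human astrocytes per well. Recordings used Cal-520 dye in HBSS/HEPES/glucose at 37 °C, with a 470/540 nm read at 2 Hz. Oscillations were stabilized with 0.04% DMSO, read for 20 min, then read again 60 min after compound addition (final DMSO 0.1%).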

[4] = read-out: Area under the curve - 2D Mean
[5] = read-out: Peak amplitude - 2D Mean
[6] = read-out: Peak-to-peak interval - 2D Mean

Cn1c(=O)c2[nH]cnc2n(C)c1=O [Theophylline]
Area under the curve - 3D Mean ([1]; 11.11 µM): 156.1 % change from baseline
Peak Number—3D Mean ([1]; 11.11 µM): 2.0 % change from baseline
Peak amplitude - 3D Mean ([1]; 11.11 µM): 121.2 % change from baseline
Peak width - 3D Mean ([1]; 11.11 µM): 11.1 % change from baseline
Peak-to-peak interval - 3D Mean ([1]; 11.11 µM): −4.0 % change from baseline
Area under the curve - 3D Mean ([1]; 33.33 µM): 171.1 % change from baseline
Peak Number—3D Mean ([1]; 33.33 µM): 53.5 * % change from baseline
Peak amplitude - 3D Mean ([1]; 33.33 µM): 142.1 % change from baseline
Peak width - 3D Mean ([1]; 33.33 µM): 12.2 % change from baseline
Peak-to-peak interval - 3D Mean ([1]; 33.33 µM): −21.2 % change from baseline
Area under the curve - 3D Mean ([1]; 100 µM): 148.8 % change from baseline
Peak Number—3D Mean ([1]; 100 µM): 78.1 * % change from baseline
Peak amplitude - 3D Mean ([1]; 100 µM): 99.6 % change from baseline
Peak width - 3D Mean ([1]; 100 µM): 21.3 % change from baseline
Peak-to-peak interval - 3D Mean ([1]; 100 µM): −37.1 % change from baseline
Area under the curve - 3D Mean ([1]; 300 µM): 134.2 % change from baseline
Peak Number—3D Mean ([1]; 300 µM): 114.2 * % change from baseline
Peak amplitude - 3D Mean ([1]; 300 µM): 89.4 % change from baseline
Peak width - 3D Mean ([1]; 300 µM): 29.3 % change from baseline
Peak-to-peak interval - 3D Mean ([1]; 300 µM): −45.7 % change from baseline
Free Cmax ([2]; Table 1, peak plasma concentration in men, free therapeutic Cmax): 8 to 15 µM
Free Cmax ([2]; Table 2, highest plasma concentration in humans after the therapeutic dose): 8 to 15 µM
effect on peak number / Ca2+ neuronal oscillations, in words ([3]; 2D format): significantly increased peak number
activation at 11.11 µM [3, 4]: 32.3%
activation at 11.11 µM ([3]; read-out: Peak Number—2D Mean): -5.7%
activation at 11.11 µM [3, 5]: 12.7%
activation at 11.11 µM ([3]; read-out: Peak width - 2D Mean): 22.8%
activation at 11.11 µM [3, 6]: 24.3%
activation at 33.33 µM [3, 4]: 41.7%
activation at 33.33 µM ([3]; read-out: Peak Number—2D Mean): 24.7%
activation at 33.33 µM [3, 5]: 15.3%
activation at 33.33 µM ([3]; read-out: Peak width - 2D Mean): 31.2%
activation at 33.33 µM [3, 6]: -5.2%
activation at 100 µM [3, 4]: 29.7%
activation at 100 µM ([3]; read-out: Peak Number—2D Mean): 39.3%
activation at 100 µM [3, 5]: 10%
activation at 100 µM ([3]; read-out: Peak width - 2D Mean): 24.3%
activation at 100 µM [3, 6]: -26.3%
activation at 300 µM [3, 4]: 72.8%
activation at 300 µM ([3]; read-out: Peak Number—2D Mean): 118%
activation at 300 µM [3, 5]: 6%
activation at 300 µM ([3]; read-out: Peak width - 2D Mean): 113%
activation at 300 µM [3, 6]: -46.8%
